Experimental data reported in patent US12319693B2, “Crystalline forms of CFTR modulators” (Vertex Pharmaceuticals Incorporated, priority 2019, dated 2025).

Key:
[1] = biological target: CFTR-mediated chloride transport (Homo sapiens, UniProt P13569); test: Membrane potential dye assay in human intestinal epithelial enteroid cells; type: cell-based; conditions: 18-24 h incubation, acute 10 μM forskolin + 300 nM Compound III
Experimental: Base medium (ADF+++) consisted of Advanced DMEM/Ham's F12, 2 mM Glutamax, 10 mM HEPES, 1μ/ml penicillin/streptomycin.
Intestinal enteroid maintenance medium (IEMM) consisted of ADF+++, 1×B27 supplement, 1×N2 supplement, 1.25 mM N-acetyl cysteine, 10 mM Nicotinamide, 50 ng/mL hEGF, 10 nM Gastrin, 1 μg/mL hR-spondin-1, 100 ng/mL hNoggin, TGF-b type 1 inhibitor A-83-01, 100 μg/mL Primocin, 10 μM P38 MAPK inhibitor SB202190.
Bath 1 Buffer consisted of 1 mM MgCl2, 160 mM NaCl, 4.5 mM KCl, 10 mM HEPES, 10 mM Glucose, 2 mM CaCl2).
Chloride Free Buffer consisted of 1 mM Magnesium Gluconate, 2 mM Calcium Gluconate, 4.5 mM Potassium Gluconate, 160 mM Sodium Gluconate, 10 mM HEPES, 10 mM Glucose.
Bath1 Dye Solution consisted of Bath 1 Buffer, 0.04% Pluronic F127, 20 μM Methyl Oxonol, 30 μM CaCCinh-A01, 30 μM Chicago Sky Blue. […]
Enteroid cells were incubated with test compound in IEMM for 18-24 h at 37° C., 95% humidity and 5% CO2. […] Chloride transport was initiated by addition of Chloride Free Dye Stimulation Solution and the fluorescence signal was read for 15 min. […] Chloride transport was then expressed as a percentage of the chloride transport following treatment with 3 μM Compound I, 3 μM Compound II, and 300 nM acute Compound III triple combination control (% Activity). […]

F508del CFTR [2] = biological target: T1, F508del CFTR (Homo sapiens, UniProt P13569, DEL508-508); test: Ussing chamber chloride transport in F508del/F508del HBE cells; type: cell-based; conditions: for chloride transport (effect in words): Compound I alone 16 to 24 h, Compound III added in the presence of Compound I or Compound I/Compound II
T1 construct: HBE cells derived from 3 F508del homozygous donors and 5 F508del/MF donors; endogenous in cells; host or cells: primary HBE cells from F508del/F508del and F508del/MF donors
T1 sequence (P13569 with tags, fused parts or gaps DEL508-508): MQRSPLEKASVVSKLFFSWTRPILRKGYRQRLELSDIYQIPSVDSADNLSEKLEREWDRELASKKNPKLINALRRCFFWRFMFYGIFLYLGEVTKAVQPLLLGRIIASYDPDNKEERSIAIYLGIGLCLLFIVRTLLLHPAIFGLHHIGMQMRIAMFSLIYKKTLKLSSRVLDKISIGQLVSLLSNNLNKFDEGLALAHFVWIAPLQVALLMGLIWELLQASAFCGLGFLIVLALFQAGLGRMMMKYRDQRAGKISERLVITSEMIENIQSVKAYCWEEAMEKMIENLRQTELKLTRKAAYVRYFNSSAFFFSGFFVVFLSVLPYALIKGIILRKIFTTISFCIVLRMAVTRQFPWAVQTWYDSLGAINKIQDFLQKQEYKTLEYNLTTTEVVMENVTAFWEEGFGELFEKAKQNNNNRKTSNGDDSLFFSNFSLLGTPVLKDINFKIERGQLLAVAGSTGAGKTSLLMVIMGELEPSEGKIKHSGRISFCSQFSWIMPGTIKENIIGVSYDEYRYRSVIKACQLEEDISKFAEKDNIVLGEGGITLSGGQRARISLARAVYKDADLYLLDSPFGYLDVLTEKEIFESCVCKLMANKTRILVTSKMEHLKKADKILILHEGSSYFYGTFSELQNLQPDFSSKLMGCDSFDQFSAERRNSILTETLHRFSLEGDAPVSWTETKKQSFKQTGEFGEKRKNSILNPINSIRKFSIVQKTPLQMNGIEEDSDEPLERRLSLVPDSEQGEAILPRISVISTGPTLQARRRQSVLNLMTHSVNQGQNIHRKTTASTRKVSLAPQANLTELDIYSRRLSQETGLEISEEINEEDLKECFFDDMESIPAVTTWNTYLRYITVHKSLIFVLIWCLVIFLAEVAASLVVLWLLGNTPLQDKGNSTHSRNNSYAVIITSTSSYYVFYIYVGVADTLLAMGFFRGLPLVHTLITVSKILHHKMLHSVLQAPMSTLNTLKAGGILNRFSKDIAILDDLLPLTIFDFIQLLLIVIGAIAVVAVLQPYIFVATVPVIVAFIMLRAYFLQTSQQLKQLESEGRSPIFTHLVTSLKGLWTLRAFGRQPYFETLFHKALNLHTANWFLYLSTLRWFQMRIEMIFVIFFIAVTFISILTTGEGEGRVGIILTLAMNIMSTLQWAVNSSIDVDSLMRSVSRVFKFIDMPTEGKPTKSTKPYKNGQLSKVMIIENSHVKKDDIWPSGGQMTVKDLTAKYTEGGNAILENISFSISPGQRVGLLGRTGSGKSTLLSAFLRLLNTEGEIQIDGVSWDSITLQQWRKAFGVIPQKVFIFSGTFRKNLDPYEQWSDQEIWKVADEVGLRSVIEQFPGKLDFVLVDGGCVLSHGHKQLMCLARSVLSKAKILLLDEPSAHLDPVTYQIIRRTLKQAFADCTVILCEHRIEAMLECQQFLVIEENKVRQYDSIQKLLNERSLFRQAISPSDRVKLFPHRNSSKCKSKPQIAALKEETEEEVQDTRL
Experimental: (§1) Ussing chamber studies were conducted to measure F508del CFTR-mediated chloride transport in HBE cells derived from 3 F508del homozygous donors and 5 F508del/MF donors (G542X, 3 donors; E585X, 1 donor; 3905InsT, 1 donor). As a positive control, maximally effective concentrations of N-(benzenesulfonyl)-6-[3-[2-[1-(trifluoromethyl)cyclopropyl]ethoxy]pyrazol-1-yl]-2-[(4S)-2,2,4-trimethylpyrrolidin-1-yl]pyridine-3-carboxamide (see WO 2018/064632) and N-[(6-amino-2-pyridyl)sulfonyl]-6-(3-fluoro-5-isobutoxy-phenyl)-2-[(4S)-2,2,4-trimethylpyrrolidin-1-yl]pyridine-3-carboxamide (see WO 2016/057572) in combination with Compound II/Compound III were included in each experiment.
(§2) In these CF cell lines, CFTR-mediated chloride transport was low in the absence of CFTR modulators, which is consistent with little-to-no CFTR at the cell surface. […] However, the efficacy of Compound I/Compound III and Compound I/Compound II/Compound III was similar at their respective EC90 values.

F508del CFTR [3] = biological target: T1, F508del CFTR; test: Ussing chamber chloride transport in F508del/MF HBE cells; type: cell-based; conditions: for chloride transport (effect in words): Compound I alone 16 to 24 h, Compound III added in the presence of Compound I or Compound I/Compound II
Experimental: as §1, §2

[4] = Pharmacokinetics after a single oral administration in male rats; type: in vivo
Experimental: (§3) Following a single oral administration of Compound I in male animals, Compound I mean tmax values were 9 h in rats, 4 h in dogs, and 3 h in monkeys.

[5] = Pharmacokinetics after a single oral administration in male dogs; type: in vivo; conditions: nominal dose 1 mg/kg
Experimental: as §3

[6] = Pharmacokinetics after a single oral administration in male monkeys; type: in vivo; conditions: nominal dose 1 mg/kg, oral bioavailability
Experimental: as §3

[7] = Systemic exposure with increasing dose and repeated oral administration for 28 d in rats; type: in vivo
Experimental: (§4) Following repeated oral administration of Compound I for 28 d in rats and dogs, accumulation of Compound I exposure was observed. Systemic exposure to Compound I on Day 28 was higher than on Day 1 (Day 28/Day 1 AUC024h ratio ranged from 1.63 to 2.70 in male rats, 5.01 to 8.26 in female rats, 1.73 to 2.64 in male dogs, and 1.82 to 2.23 in female dogs).

[8] = Systemic exposure with increasing dose and repeated oral administration for 28 d in dogs; type: in vivo; conditions: as the dose increased
Experimental: as §4

[9] = Safety analysis of ongoing clinical study (Cohorts A1 to A5, B, C); type: in vivo, human
Experimental: A safety analysis of an ongoing clinical study was performed for 37 subjects in Cohorts A1 to A5, 33 subjects in Cohort B, and 17 subjects in Cohort C, who were exposed to at least 1 dose of study drug (Compound I or placebo) as a monotherapy and as part of a triple combination with Compound II or Compound III.

[10] = Relative stability of polymorphic / solvate forms; type: physicochemical; conditions: water activity ≤0.95 at ambient temperature
[11] = with a fixed combination of Compound II
[12] = with a fixed concentration of Compound III or Compound II/Compound III

CFTR-mediated chloride transport, sequence (P13569 whole entry): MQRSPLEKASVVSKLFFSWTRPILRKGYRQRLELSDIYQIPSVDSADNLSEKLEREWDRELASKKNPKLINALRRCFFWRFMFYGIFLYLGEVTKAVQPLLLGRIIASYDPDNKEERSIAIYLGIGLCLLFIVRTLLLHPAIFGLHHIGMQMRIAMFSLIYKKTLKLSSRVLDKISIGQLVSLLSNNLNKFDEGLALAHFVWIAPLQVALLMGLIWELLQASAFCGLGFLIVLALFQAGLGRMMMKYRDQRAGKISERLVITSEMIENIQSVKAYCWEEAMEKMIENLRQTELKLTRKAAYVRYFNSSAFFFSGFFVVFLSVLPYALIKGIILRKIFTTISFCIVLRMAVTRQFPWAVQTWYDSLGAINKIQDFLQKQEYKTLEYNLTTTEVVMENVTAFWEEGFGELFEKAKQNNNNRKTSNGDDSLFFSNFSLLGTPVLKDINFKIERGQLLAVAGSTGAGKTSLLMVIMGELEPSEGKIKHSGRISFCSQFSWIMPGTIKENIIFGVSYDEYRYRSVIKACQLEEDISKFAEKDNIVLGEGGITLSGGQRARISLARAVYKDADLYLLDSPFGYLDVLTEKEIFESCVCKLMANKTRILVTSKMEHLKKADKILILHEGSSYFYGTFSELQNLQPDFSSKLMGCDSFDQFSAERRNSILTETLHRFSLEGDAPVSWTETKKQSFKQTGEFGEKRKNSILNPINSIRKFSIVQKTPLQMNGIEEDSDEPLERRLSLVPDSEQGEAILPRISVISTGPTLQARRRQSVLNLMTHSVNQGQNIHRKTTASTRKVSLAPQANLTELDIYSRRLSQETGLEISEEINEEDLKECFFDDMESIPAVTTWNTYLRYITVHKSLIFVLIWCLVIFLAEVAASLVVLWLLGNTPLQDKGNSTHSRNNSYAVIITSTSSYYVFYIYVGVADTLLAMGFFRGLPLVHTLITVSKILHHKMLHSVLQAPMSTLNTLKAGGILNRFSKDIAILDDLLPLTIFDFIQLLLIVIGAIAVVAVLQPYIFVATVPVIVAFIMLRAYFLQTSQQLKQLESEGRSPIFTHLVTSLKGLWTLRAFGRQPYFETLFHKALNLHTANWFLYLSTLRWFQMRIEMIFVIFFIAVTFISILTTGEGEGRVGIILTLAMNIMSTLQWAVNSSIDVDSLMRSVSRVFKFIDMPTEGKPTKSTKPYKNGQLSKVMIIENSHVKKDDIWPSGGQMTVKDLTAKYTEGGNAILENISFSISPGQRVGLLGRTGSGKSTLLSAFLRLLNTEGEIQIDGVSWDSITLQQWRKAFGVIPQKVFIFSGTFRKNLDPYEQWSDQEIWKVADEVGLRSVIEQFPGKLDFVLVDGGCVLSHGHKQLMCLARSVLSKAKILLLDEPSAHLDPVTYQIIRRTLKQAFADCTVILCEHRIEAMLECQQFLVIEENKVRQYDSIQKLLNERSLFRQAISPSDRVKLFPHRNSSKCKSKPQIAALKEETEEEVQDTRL

SMILES: CC1(C)C[C@@H]2CCCNc3cccc(n3)S(=O)(=O)NC(=O)c3ccc(-n4ccc(OCCC5C6(CC6)C56CC6)n4)nc3N1C2 [Compound I, (14S)-8-[3-(2-{Dispiro[2.0.2.1]heptan-7-yl}ethoxy)-1H-pyrazol-1-yl]-12,12-dimethyl-2λ6-thia-3,9,11,18,23-pentaazatetracyclo[17.3.1.111,14.05,10]tetracosa-1(22),5,7,9,19(23),20-hexaene-2,2,4-trione]
- EC50 [1]: < 1 µM
- Max. Activity ([1]; % of chloride transport with 3 μM Compound I, 3 μM Compound II, 300 nM acute Compound III control): +++ (+++ is >60%)
- chloride transport (effect in words) (F508del CFTR [2]): modest increase in chloride transport
- synergy analysis (F508del CFTR [2]; [11]): modestly synergistic
- synergy analysis (F508del CFTR [2]; [12]): highly synergistic
- chloride transport (effect in words) (F508del CFTR [3]): modest increase in chloride transport
- synergy analysis (F508del CFTR [3]; [11]): modestly synergistic
- synergy analysis (F508del CFTR [3]; [12]): highly synergistic
- F ([4]; nominal dose 3 mg/kg, oral bioavailability): 76.9%
- bioavailability ([4]; rat, in vivo, 3 mg/kg, read-out: Mean oral bioavailability (F)): 76.9%
- tmax ([5]; mean ± SD (n = 3)): 4.00 ± 0.00 h
- F ([5]; oral bioavailability): 49.7%
- F [6]: 12.9%
- Dosenormalized exposure, sex difference [7]: higher in female rats than male rats
- increase of systemic exposure with dose ([7]; as the dose increased): more than doseproportional
- increase of systemic exposure with dose [8]: more than doseproportional
- safety and tolerability ([9]; up to 20 mg qd in triple combination with Compound II and Compound III): generally safe and well-tolerated
- safety and tolerability ([9]; up to a dose of 60 mg qd in monotherapy): generally safe and well-tolerated

SMILES: CC1(C)C[C@@H]2CCCNc3cccc(n3)S(=O)(=O)NC(=O)c3ccc(-n4ccc(OCCC5C6(CC6)C56CC6)n4)nc3N1C2 [Compound I free Form A]
- relative polymorphic stability [10]: most stable polymorphic form

SMILES: CC(C)(C)c1cc(C(C)(C)C)c(NC(=O)c2c[nH]c3ccccc3c2=O)cc1O [Compound III, N-[2,4-bis(1,1-dimethylethyl)-5-hydroxyphenyl]-1,4-dihydro-4-oxoquinoline-3-carboxamide, reference compound]
- chloride transport (effect in words) (F508del CFTR [2]): strongly potentiated chloride transport
- chloride transport (effect in words) (F508del CFTR [3]): strongly potentiated chloride transport
